# Measured values published in US5420276A, “Analogs of oxetanyl purines and pyrimidines” (Abbott Laboratories, priority 1993, dated 1995).
# Read-outs that look alike come from different tables or passages of the source.
# What was measured:
# [1] = system: Herpes simplex type 1 (HSV-1) strain E-377; assay: CPE-inhibition assay, herpes simplex type 1 strain E-377 in Vero cells; assay type: cell-based, herpes simplex virus type 1
# Description: (§1) The challenge viruses were propagated and assayed in cells that were pregrown as monolayer cultures in plastic tissue culture flasks and 96-well plates, using cell culture media appropriate for the host cell cultures. The following viruses and host cell cultures were employed:
# (§2) green monkey kidney (Vero)
# (§3) On the day of use, a weighed sample of each compound to be evaluated was dissolved and diluted in serial 10^0.5 dilutions in the culture medium appropriate for each virus-host cell system.
# (§4) Mammalian cells were pregrown as monolayers in wells of COSTAR 96-well tissue culture plates using suitable cell culture media. Stock viruses were pretitered according to the method of Reed and Muench (Amer. J. Hyg. 27:493-497, 1938) and diluted in cell culture medium to yield 32 CCID50 (cell culture infectious dose, 50%) units per 0.1 ml. Antiviral assays were designed to test seven concentrations of each compound, from cytotoxic to noncytotoxic levels, in triplicate against each of the challenge viruses in microtiter plate wells containing suitable cell monolayers. To each of the replicate cell cultures were added 0.1 ml of the test drug solution and 0.1 ml of virus suspension. Cell controls containing medium alone, virus controls containing medium and virus, and drug cytotoxicity controls containing medium and each drug concentration were run simultaneously with the test samples assayed in each experiment. […] The cell monolayers were examined microscopically for virus-induced CPE and for drug cytotoxicity.
# (§5) Antiviral activity was determined by calculating the degree of inhibition of virus-induced CPE in drug-treated, virus-infected cell cultures by means of a virus rating (VR). The VR is a standard weighted measurement of antiviral activity taking into account both the degree of CPE inhibition and drug cytotoxicity, and is determined by a modification of the method of Ehrlich et al. (Ann. N.Y. Acad. Sci. 130: 5-16, 1965) as described below. CPE was graded for each individual culture in each microtiter plate well according to the following scale:
# (§6) 4=100% of the cells affected by virus;
# (§7) 3=75% of the cells affected by virus;
# (§8) 2=50% of the cells affected by virus;
# (§9) 1=25% of the cells affected by virus;
# (§10) 0=No CPE; normal cell monolayer.
# (§11) The VR was calculated as 0.1 of the sum of the numerical differences between the recorded CPE grade of each test well and that of the corresponding virus control in the culture plate. Numerical differences between the scores of test wells containing a drug concentration which was partially cytotoxic (p) and their corresponding virus controls were halved.
# (§12) The minimum inhibitory drug concentration which reduced the cytopathogenic effect (CPE) by 50% (MIC50) was calculated by using a regression analysis program for semilog curve fitting. A therapeutic index (TI) for each active compound for each susceptible virus was determined by dividing the minimum cytotoxic concentration of the test compound by the MIC50.
# [2] = system: Herpes simplex type 2 (HSV-2) strain MS; assay: CPE-inhibition assay, herpes simplex type 2 strain MS in Vero cells; assay type: cell-based, herpes simplex virus type 2
# Description: as §1, §2, §3, §4, §5, §6, §7, §8, §9, §10, §11, §12
# [3] = Drug cytotoxicity in Vero cells (microscopic, CPE-inhibition assay); assay type: cell-based; conditions: african green monkey, minimum drug concentration causing any cytotoxicity, read-out: MTC
# Description: as §4, §5, §12
# [4] = system: Varicella-Zoster Virus (VZV) clinical isolate DM625; assay: VZV plaque reduction assay; assay type: cell-based; conditions: Human alphaherpesvirus 3, 144 h, VZV in HFF; for EC50: minimum concentration required to inhibit plaque formation by 50%, read-out: MIC50
# Description: The compounds of the invention were evaluated for selective activity against varicella zoster virus (VCV) utilizing a plaque reduction assay procedure. The challenge virus was a clinical isolate designated DM625, obtained from Dr. Richard Whitley of the University of Alabama Hospitals, Birmingham, Ala. The virus had been passaged and titrated in cultures of human foreskin fibroblasts (HFF).
# (§13) For the plaque reduction assay, sixth to twelfth passage human foreskin fibroblasts were seeded in wells of 12-well tissue culture plates and incubated at 37° C. in a humidified atmosphere containing 2% CO2 in air. Subconfluent HFF were rinsed with MEM and exposed to 0.5 ml/well of a suspension of VZV diluted in MEM+2% FBS for 2 hours at 37° C. Following the virus adsorption period, the inocula were removed and the infected cell layers were rinsed with MEM. Triplicate VZV-infected cell culture wells were treated with 1.0 ml of each concentration of test compound (in MEM+2% FBS). Six untreated virus-infected cell cultures and triplicate untreated uninfected cell cultures were fed with 1.0 ml of MEM+2% FBS to serve as controls. Wells containing uninfected HFF were treated with each concentration of test compound to monitor the test compound cytotoxicity. The 12-well plates were incubated at 37° C. in the CO2 incubator. At 48 hours post-virus infection (p.i.), fluids in all plate wells were replaced with fresh test compound and/or culture medium.
# Six days p.i., the VZV plaques were counted (unstained, low magnification).The effect of each concentration of test compound on plaque formation was determined by comparing the mean number of plaques in the replicate test compound-treated cultures with the mean plaque counts of the untreated virus control cultures.
# The MIC50 value is the minimum concentration of test Compound required to inhibit plaque formation by 50%.
# [5] = MTT test compound cytotoxicity in human foreskin fibroblasts; assay type: cell-based; conditions: hff cells, read-out: MTT assay (Percent of control)
# Description: as §13
# The test compound cytotoxicity control cultures were examined microscopically for gross morphologic changes, then treated with MTT and 30% SDS. The blue color of the MTT formazan was measured spectrophotometrically at 570 nm. Test compound cytotoxicity was determined by comparing the absorbance (O.D.) of each test compound control with the mean O.D. of the cell control cultures and expressed as percent of control.
# [6] = system: Herpes Simplex Virus Type 1; assay: Neutral red dye uptake assay for antiviral activity, HSV-1 in Vero cells; assay type: cell-based; conditions: Human alphaherpesvirus 1, HSV-1, Vero, concentration at which 50% CPE would be observed, read-out: MIC50
# Description: (§14) Vero cell monolayers were harvested by trypsinization. The number of viable cells per ml. was determined by staining an aliquot with trypan blue and counting in a hemocytometer. Cell densities were adjusted in growth medium to contain 4×10^5 cells/mi. 96-well sterile tissue culture plates were seeded with 100 μl/well of the adjusted cell suspensions, i.e., 4×10^4 cells/well. Seeded plates were incubated overnight at 37° C. with CO2.
# (§15) After overnight incubation, monolayers were approximately confluent. The growth medium was removed and the monolayers in each cell were infected with 100 μl of virus diluted in maintenance medium to produce approximately 90% cytopathogenic effect (CPE) after 2 to 3 days incubation. The virus was allowed to adsorb for 1 hour at 37° C. with 4 to 6% CO2. Controls for cell growth were overlayed with virus-free maintenance medium. The maintenance medium containing residual virus was removed.
# (§16) The test compounds were dissolved and/or diluted in maintenance medium to the concentration desired for testing and were added to the wells of the plate. Aliquots (100 μl ) of each concentration were added to wells in replicate (duplicate or triplicate). Controls for virus activity were overlayed with drug-free maintenance medium. Replicate wells containing only maintenance medium served as controls for background absorbance levels.
# After incubation, the medium was removed from all the wells. 100 μl of neutral red solution was added to each well and the plate was incubated at 37° C. without CO2 for 2 hours. After the 2 hour incubation, the excess neutral red solution was removed. […]
# The neutral red stain taken up by the viable cells was extracted by adding 100 μl/well of acidified methanol, pH 1.0. […] The amount of neutral red stain extracted into the methanol was quantified by determining the absorbance at a wavelength of 540 nm.
# The percent CPE in virus controls was determined by the following formula: [formula]
# The percent CPE in cells infected with virus and treated with the test compound was determined by the following formula: [formula] […]
# [7] = in vitro; assay type: cell-based, African green monkey; conditions: monkey, vero cells
# Description: as §14, §15, §16
# After incubation, the medium was removed from all the wells. 100 μl of neutral red solution was added to each well and the plate was incubated at 37° C. without CO2 for 2 hours. After the 2 hour incubation, the excess neutral red solution was removed. The plates were washed with 100 μl/well of PBS, pH 7.2 and then the PBS was removed.
# The neutral red stain taken up by the viable cells was extracted by adding 100 μl/well of acidified methanol, pH 1.0. (The acidified methanol fixed the cells to the well). The plate was allowed to stand at room temperature for at least 15 minutes to allow for maximum extraction. The amount of neutral red stain extracted into the methanol was quantified by determining the absorbance at a wavelength of 540 nm. […]
# [8] = system: HSV-1 (E-377); assay: CPE inhibition assay (MTT), HSV-1 (E-377) in Vero cells; assay type: cell-based, herpes simplex virus type 1; conditions: Human alphaherpesvirus 1, inhibited CPE by 50%
# Description: Vero cells were pregrown as monolayers in wells of COSTAR 96-well tissue culture plates using suitable cell culture media. Stock viruses were pretitered according to the method of Reed and Muench (Amer. J. Hyg. 27 493 (1938)) and diluted in cell culture medium to yield 32 CCID50 (cell culture infectious dose, 50%) units per 0.1 mL. Antiviral assays were designed to test six concentrations of each compound, from cytotoxic to noncytotoxic levels, in triplicate against each of the challenge viruses in microtiter plate wells containing cell monolayers. To each of the replicate cell cultures were added 0.1 mL of the test-compound solution and 0.1 mL of virus suspension. Two compounds were evaluated per plate. The following controls were included:
# (1) Cell controls containing cells+medium;
# (2) Untreated, virus-infected cell controls;
# (3) Test-compound cytotoxicity controls containing uninfected, test-compound treated cells;
# (4) Test-compound color controls-test-compound+medium (no cells); and
# (5) Reagent (experiment medium) controls-medium only (no cells).
# The covered plates were incubated at 37° C. in a humidified atmosphere containing 2% CO2. When cytopathogenic effect (CPE) in untreated virus control wells reached 100%, 20 μL of 3-(4,5-dimethyl-thiazol-2-yl)-2,5-diphenyl tetrazolium bromide (MTT) (dissolved in PBS at 5 mg/mL) was pipetted into each of the plate wells. The plates were incubated at 37° C. for six hours; then 40 μL of 30% SDS (in 0.02N HCl) was added to each well. After overnight incubation at 37° C., the blue color or the MTT formazan was measured spectrophotometrically at 570 nm. The optical density (OD) value of each culture is a function of the amount of formazan produced which is proportional to the number of viable cells. A computer program was utilized to calculate the percent (CPE) reciprocal of % CPE reduction) of the virus-infected wells and % cell viability of the uninfected test-compound control wells.
# The IC50 value is the minimum test-compound concentration (μg/mL) that inhibited CPE by 50% calculated by using a regression analysis program for semilog curve fitting. The TC25 value is the minimum test-compound concentration (μg/mL) that reduced cell viability by 25%.
SMILES,inhibition at 0.032 µM [4],inhibition at 0.1 µM [4],inhibition at 0.32 µM [4],inhibition at 1 µM [4],inhibition at 3.2 µM [4],EC50 [4],viability at 0.1 µM [5],viability at 0.32 µM [5],viability at 1 µM [5],viability at 3.2 µM [5],other results
"Cc1cn([C@@H]2O[C@H](CO)[C@H]2CO)c(=O)[nH]c1=O [Example 21, 1-([2'R, 3'R, 4'S]-3',4'-Bis(hydroxymethyl)-2'-oxetanyl)5-methyluracil]",16%,55%,97%,100%,100%,0.09 µg/mL,93%,84%,87%,87%,"VR (Virus Rating) ([1]; HSV-1 (E-377)): 5.9; IC50 ([1]; Human alphaherpesvirus 1, HSV-1 (E-377), minimum drug concentration that inhibited the CPE by 50%, read-out: ID50 (the source's name)): 0.2 µg/mL; VR (Virus Rating) ([2]; HSV-2 (MS)): 2.9; IC50 ([2]; Human alphaherpesvirus 2, HSV-2 (MS), minimum drug concentration that inhibited the CPE by 50%, read-out: ID50 (the source's name)): 44.3 µg/mL; MCC ([3]; HSV-1 (E-377)): 320 µg/mL; MCC ([3]; HSV-2 (MS)): > 320 µg/mL"
"CCc1cn([C@@H]2O[C@H](CO)[C@H]2CO)c(=O)[nH]c1=O [Example 48, 1-([2'R, 3'R, 4'S]-3',4'-Bis(hydroxymethyl)-2'-oxetanyl)-5-ethyluracil]",,,,,,,,,,,EC50 [6]: 0.06 µg/mL; CC50 [7]: 350 µg/mL
"CC#Cc1cn([C@@H]2O[C@H](CO)[C@H]2CO)c(=O)[nH]c1=O [Example 68, 1-([2'R, 3'R, 4'S]-3',4'-Bis(hydroxymethyl)-2'-oxetanyl)-5-propynyluracil]",3%,38%,92%,99%,100%,0.045 µg/mL,100%,100%,98%,100%,viability at 0.032 µM ([5]; 0.032 μM): 100%
"O=c1[nH]c(=O)n([C@@H]2O[C@H](CO)[C@H]2CO)cc1C=CCl [Example 50, 1-([2'R, 3'R, 4'S]-3',4'-Bis(hydroxymethyl)-2'-oxetanyl)-5-(2-chloro-1-vinyl)uracil]",90%,99%,98%,99%,,0.004 µg/mL,100%,100%,100%,,IC50 [8]: 0.74 µg/mL; inhibition at 0.0032 µM ([4]; 0.0032 μM): 7%; inhibition at 0.01 µM ([4]; 0.01 μM): 45%
